Laboratory results reported in ChEMBL document CHEMBL1156407, “The antiplasmodial activity of isolates from Ajuga remota” (J Nat Prod, 2002).
Active and inactive are the calls of the source. The rule behind the calls is not given here.

Experiments:
Plasmodium falciparum [1] = experiment: Antiplasmodial activity after 72 hrs against chloroquine-sensitive Plasmodium falciparum FCA10/GHA at 500 uM by LDH activity; type: functional, organism-based
[2] = Cytotoxicity against human A431 cells by MTT assay; type: cell-based, A-431; conditions: read-out: ED50 (the source's name)
[3] = Selectivity index, ratio of ED50 for human A431 cells to IC50 for chloroquine-sensitive Plasmodium falciparum FCA10/GHA; type: functional, A-431
Plasmodium falciparum [4] = experiment: Antiplasmodial activity after 72 hrs against chloroquine-sensitive Plasmodium falciparum FCA10/GHA as LDH activity; type: functional, organism-based

SMILES | Activity (Plasmodium falciparum [1]) | CC50 [2] [µM] | Ratio [3] | IC50 (Plasmodium falciparum [4]) [µM]
CC(=O)O[C@@]1(C)C[C@@H](O)[C@]2(O)C=CO[C@@H](O[C@@H]3O[C@H](CO)[C@@H](O)[C@H](O)[C@H]3O)[C@@H]21 | inactive | 310 |  | 
O=c1[nH]cc(F)c(=O)[nH]1 [FLUOROURACIL] |  | 44 |  | 
CC(=O)OC[C@@]12[C@@H](OC(C)=O)C[C@@H](C)[C@](C)(CCC3=CC(=O)OC3)[C@H]1CCC[C@]21CO1 [AJUGARIN I] |  | > 88 | >4 | 23
CC(C)C/C=C/C[C@H]1CC[C@@H]2[C@]1(C)CCC1[C@]23C=C[C@]2(C[C@@H](O)CC[C@]12C)OO3 (some centres undefined) |  | > 23 | >3 | 8.2
